Source: US7745646B2, “Bicyclic heteroaryl inhibitors of PDE4” (Kalypsys, Inc., priority 2006, dated 2010)

Molecular target: T1, PDE4B (Homo sapiens, UniProt Q07343)
T1 construct: hex-histidine (His6) (N); made in house
Test: Novel coupled PDE/AK bioluminescent assay, PDE4B inhibition
Format: biochemical
Details: PDE4B catalytic domain
Excerpt: We developed a novel coupled PDE/AK bioluminescent high-throughput assay to measure the activity of phosphodiesterases. In the PDE/AK assay, the AMP produced from the hydrolysis of cAMP by phosphodiesterase is converted to adenosine diphosphate (ADP) by the phosphotransferase activity of adenylate kinase (also known as ADK or myokinase). Adenylate kinase will catalyze the conversion of 1 mole of AMP and 1 mole of ATP into 2 moles of ADP. Thus the conversion of AMP to ADP will result in the subsequent loss of ATP. The decrease in ATP concentration can be monitored as light output using luciferase in a reaction that requires ATP to produce light. The PDE/AK assay uses luciferase, which catalyzes the production of light from ATP present in the reaction mix. The amount of emitted light is inversely proportional to the level of AMP present in the reaction. Test compounds are incubated with the phosphodiesterases and phosphodiesterase inhibitors will decrease the rate of cAMP hydrolysis and decrease the subsequent production of AMP.
A novel coupled PDE/AK assay was utilized to measure the inhibitory activity of compounds on PDE isoforms. The catalytic domain of PDE4B was fused to an amino-terminus hex-histidine affinity tag and purified. PDE4B enzyme was incubated with compounds for 10 minutes. Cyclic AMP substrate, ATP and adenylate kinase were then added to the PDE enzyme mix and incubated for 45 minutes at room temperature. A commercial ATP detection assay, Perkin Elmer's easyLite ATP detection reagent, was then added to measure the relative amount of ATP present in the reaction. After 10 minute incubation, the luminescent signal was quantitated with either the Perkin Elmer Viewlux or Molecular Devices Acquest or Analyst.

T1 sequence (Q07343 330-659 limits assumed, species assumed): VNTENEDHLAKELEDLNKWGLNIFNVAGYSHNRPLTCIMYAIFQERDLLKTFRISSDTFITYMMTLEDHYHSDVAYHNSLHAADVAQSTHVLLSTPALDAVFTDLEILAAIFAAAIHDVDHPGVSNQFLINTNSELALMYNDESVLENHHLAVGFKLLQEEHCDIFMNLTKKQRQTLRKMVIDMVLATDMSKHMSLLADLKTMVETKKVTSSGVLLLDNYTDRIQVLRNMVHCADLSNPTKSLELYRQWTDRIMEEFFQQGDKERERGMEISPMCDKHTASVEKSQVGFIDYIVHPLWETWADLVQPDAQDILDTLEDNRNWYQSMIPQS

Row | SMILES | IC50 [nM]
1 | COc1ccc2c(Nc3c(Cl)cncc3Cl)cc(=O)oc2c1OCCCCCN(C)C [Example 31, 4-(3,5-Dichloropyridin-4-ylamino)-8-(5-(dimethylamino)pentyloxy)-7-methoxy-2H-chromen-2-one] | < 1000
2 | COC(=O)COc1c(OC)ccc2c(Nc3c(Cl)cncc3Cl)cc(=O)oc12 [Example 45, Methyl 2-(4-(3,5-dichloropyridin-4-ylamino)-7-methoxy-2-oxo-2H-chromen-8-yloxy)acetate] | < 1000
3 | COc1ccc2c(NCC(=O)NO)cc(=O)oc2c1OC1CCCC1 [Example 10, 2-(8-(Cyclopentyloxy)-7-methoxy-2-oxo-2H-chromen-4-ylamino)-N-hydroxyacetamide] | < 1000
4 | COc1ccc2c(Nc3c(Cl)cncc3Cl)cc(=O)oc2c1OCCCC(=O)O [Example 42, 4-(4-(3,5-Dichloropyridin-4-ylamino)-7-methoxy-2-oxo-2H-chromen-8-yloxy)butanoic acid] | < 1000
5 | COc1ccc2c(Nc3c(Cl)cncc3Cl)cc(=O)oc2c1OCCCCCN1CCCCC1 [Example 54, 4-(3,5-Dichloropyridin-4-ylamino)-7-methoxy-8-(5-(piperidin-1-yl)pentyloxy)-2H-chromen-2-one] | < 1000
6 | COc1ccc2c(Nc3c(Cl)cncc3Cl)cc(=O)oc2c1OCc1ccccc1[N+](=O)[O-] [Example 33, 4-(3,5-Dichloropyridin-4-ylamino)-7-methoxy-8-(2-nitrobenzyloxy)-2H-chromen-2-one] | < 1000
7 | COc1ccc2c(Nc3c(Cl)cncc3Br)cc(=O)oc2c1OC1CCCC1 [Example 11, 4-(3-Bromo-5-chloropyridin-4-ylamino)-8-(cyclopentyloxy)-7-methoxy-2H-chromen-2-one] | < 1000
8 | COc1ccc2c(Nc3c(Cl)cncc3Cl)cc(=O)oc2c1OCCCN(C)C [Example 32, 4-(3,5-Dichloropyridin-4-ylamino)-8-(3-(dimethylamino)propoxy)-7-methoxy-2H-chromen-2-one] | < 1000
9 | COc1ccc2c(NCC(=O)O)cc(=O)oc2c1OC1CCCC1 [Example 7, 2-(8-(Cyclopentyloxy)-7-methoxy-2-oxo-2H-chromen-4-ylamino)acetic acid] | > 1000
10 | COc1ccc2c(Nc3c(C)cncc3C)cc(=O)oc2c1OC1CCCC1 [Example 12, 8-(Cyclopentyloxy)-4-(3,5-dimethylpyridin-4-ylamino)-7-methoxy-2H-chromen-2-one] | < 1000
11 | COc1ccc2c(Nc3c(Cl)cncc3Cl)cc(=O)oc2c1OCCC1CCCCC1 [Example 47, 8-(2-Cyclohexylethoxy)-4-(3,5-dichloropyridin-4-ylamino)-7-methoxy-2H-chromen-2-one] | < 1000
12 | COc1ccc2c(Nc3c(Cl)cncc3Cl)cc(=O)oc2c1OCc1ccccc1 [Example 26, 8-(Benzyloxy)-4-(3,5-dichloropyridin-4-ylamino)-7-methoxy-2H-chromen-2-one] | < 1000
13 | COc1ccc2c(Nc3c(Cl)cccc3C(F)(F)F)cc(=O)oc2c1OC1CCCC1 [Example 17, 4-(2-Chloro-6-(trifluoromethyl)phenylamino)-8-(cyclopentyloxy)-7-methoxy-2H-chromen-2-one] | < 1000
14 | COc1ccc2c(Nc3c(Cl)cncc3Cl)cc(=O)oc2c1OCC1CCCC1 [Example 40, 8-(Cyclopentylmethoxy)-4-(3,5-dichloropyridin-4-ylamino)-7-methoxy-2H-chromen-2-one] | < 1000
15 | COc1ccc2c(Nc3ccccc3Cl)cc(=O)oc2c1OC1CCCC1 [Example 19, 4-(2-Chlorophenylamino)-8-(cyclopentyloxy)-7-methoxy-2H-chromen-2-one] | < 1000
16 | COc1ccc2c(Nc3c(Cl)cncc3Cl)cc(=O)oc2c1OCCCc1ccccc1 [Example 48, 4-(3,5-Dichloropyridin-4-ylamino)-7-methoxy-8-(3-phenylpropoxy)-2H-chromen-2-one] | < 1000
17 | COc1ccc2c(Nc3c(Cl)cncc3Cl)cc(=O)oc2c1OCCCCCO[C@@H]1O[C@H](COC(C)=O)[C@@H](OC(C)=O)[C@H](OC(C)=O)[C@H]1OC(C)=O [Example 75, (2R,3R,4S,5R,6R)-2-(Acetoxymethyl)-6-(5-(4-(3,5-dichloropyridin-4-ylamino)-7-methoxy-2-oxo-2H-chromen-8-yloxy)pentyloxy)tetrahydro-2H-pyran-3,4,5-triyl triacetate] | < 1000
18 | COc1ccc2c(Nc3c(Cl)cncc3Cl)cc(=O)oc2c1OCCCCC(=O)O [Example 43, 5-(4-(3,5-Dichloropyridin-4-ylamino)-7-methoxy-2-oxo-2H-chromen-8-yloxy)pentanoic acid] | < 1000
19 | COc1ccc2c(Nc3c(Cl)cncc3C(=O)O)cc(=O)oc2c1OC1CCCC1 [Example 22, 5-Chloro-4-(8-(cyclopentyloxy)-7-methoxy-2-oxo-2H-chromen-4-ylamino)nicotinic acid] | > 1000
20 | COc1ccc2c(Nc3c(Cl)cncc3Cl)cc(=O)oc2c1OCCCCO[C@@H]1O[C@H](CO)[C@@H](O)[C@H](O)[C@H]1O [Example 87, 4-(3,5-Dichloropyridin-4-ylamino)-7-methoxy-8-(4-((2R,3R,4S,5S,6R)-3,4,5-trihydroxy-6-(hydroxymethyl)tetrahydro-2H-pyran-2-yloxy)butoxy)-2H-chromen-2-one] | < 1000
21 | COC(=O)CCCCCOc1c(OC)ccc2c(Nc3c(Cl)cncc3Cl)cc(=O)oc12 [Example 58, Methyl 6-(4-(3,5-dichloropyridin-4-ylamino)-7-methoxy-2-oxo-2H-chromen-8-yloxy)hexanoate] | < 1000

Next, values leading:

Row | IC50 [nM] | SMILES
22 | < 1000 | COc1ccc2c(Nc3c(Cl)cncc3Cl)cc(=O)oc2c1OCCCCCn1cncn1 [Example 103, 8-(5-(1H-1,2,4-Triazol-1-yl)pentyloxy)-4-(3,5-dichloropyridin-4-ylamino)-7-methoxy-2H-chromen-2-one]
23 | < 1000 | CCOC(=O)CNC(=O)CCCCCOc1c(OC)ccc2c(Nc3c(Cl)cncc3Cl)cc(=O)oc12 [Example 94, Ethyl 2-(6-(4-(3,5-dichloropyridin-4-ylamino)-7-methoxy-2-oxo-2H-chromen-8-yloxy)hexanamido)acetate]
24 | < 1000 | COc1ccc2c(Nc3c(Cl)cncc3Cl)cc(=O)oc2c1OCCCCCC(=O)NCC(=O)O [Example 96, 2-(6-(4-(3,5-Dichloropyridin-4-ylamino)-7-methoxy-2-oxo-2H-chromen-8-yloxy)hexanamido)acetic acid]
25 | < 1000 | COc1ccc2c(Nc3c(Cl)cncc3Cl)cc(=O)oc2c1OCCCCCn1ncnn1 [Example 101, 8-(5-(2H-Tetrazol-2-yl)pentyloxy)-4-(3,5-dichloropyridin-4-ylamino)-7-methoxy-2H-chromen-2-one]
26 | < 1000 | COc1ccc2c(Nc3c(Cl)cncc3Cl)cc(=O)oc2c1OCCCO [Example 85, 4-(3,5-Dichloropyridin-4-ylamino)-8-(3-hydroxypropoxy)-7-methoxy-2H-chromen-2-one]
27 | > 1000 | COc1ccc2c(Nc3c(Cl)cncc3Cl)cc(=O)oc2c1O[C@@H]1O[C@H](CO)[C@@H](O)[C@H](O)[C@H]1O [Example 77, 4-(3,5-Dichloropyridin-4-ylamino)-7-methoxy-8-((2S,3R,4S,5S,6R)-3,4,5-trihydroxy-6-(hydroxymethyl)tetrahydro-2H-pyran-2-yloxy)-2H-chromen-2-one]
28 | < 1000 | CCCCCN(C)CCCCCOc1c(OC)ccc2c(Nc3c(Cl)cncc3Cl)cc(=O)oc12 [Example 91, 4-(3,5-Dichloropyridin-4-ylamino)-7-methoxy-8-(5-(methyl(pentyl)amino)pentyloxy)-2H-chromen-2-one]
29 | < 1000 | COc1ccc2c(Nc3c(Cl)cncc3Cl)cc(=O)oc2c1OCCCCCO [Example 72, 4-(3,5-Dichloropyridin-4-ylamino)-8-(5-hydroxypentyloxy)-7-methoxy-2H-chromen-2-one]
30 | < 1000 | COc1ccc2c(Nc3c(Cl)cncc3Cl)cc(=O)oc2c1OCCCCCCCCC(=O)O [Example 67, 9-(4-(3,5-Dichloropyridin-4-ylamino)-7-methoxy-2-oxo-2H-chromen-8-yloxy)nonanoic acid]
31 | < 1000 | COc1ccc2c(Nc3c(Cl)cncc3Cl)cc(=O)oc2c1OCCOCCBr [Example 62, 8-(2-(2-Bromoethoxy)ethoxy)-4-(3,5-dichloropyridin-4-ylamino)-7-methoxy-2H-chromen-2-one]
32 | < 1000 | COc1ccc2c(Nc3c(Cl)cncc3Cl)cc(=O)oc2c1OCCOCCN(C)C [Example 69, 4-(3,5-Dichloropyridin-4-ylamino)-8-(2-(2-(dimethylamino)ethoxy)ethoxy)-7-methoxy-2H-chromen-2-one]
33 | < 1000 | COc1ccc2c(Nc3c(Cl)cncc3Cl)cc(=O)oc2c1OCCCCCOc1c(OC)ccc2c(Nc3c(Cl)cncc3Cl)cc(=O)oc12 [Example 74, 8,8′-(Pentane-1,5-diylbis(oxy))bis(4-(3,5-dichloropyridin-4-ylamino)-7-methoxy-2H-chromen-2-one)]
34 | < 1000 | COc1ccc2c(Nc3c(Cl)cncc3Cl)cc(=O)oc2c1OC [Example 64, 4-(3,5-Dichloropyridin-4-ylamino)-7,8-dimethoxy-2H-chromen-2-one]
35 | < 1000 | COc1ccc2c(Nc3c(Cl)cncc3Cl)cc(=O)oc2c1OCCCCCOP(=O)(O)O [Example 104, 5-(4-(3,5-Dichloropyridin-4-ylamino)-7-methoxy-2-oxo-2H-chromen-8-yloxy)pentyl dihydrogen phosphate]
36 | < 1000 | COc1ccc2c(Nc3c(Cl)cncc3Cl)cc(=O)oc2c1OCCCCCn1ccnn1 [Example 98, 8-(5-(1H-1,2,3-Triazol-1-yl)pentyloxy)-4-(3,5-dichloropyridin-4-ylamino)-7-methoxy-2H-chromen-2-one]
37 | < 1000 | CNCCCCCOc1c(OC)ccc2c(Nc3c(Cl)cncc3Cl)cc(=O)oc12 [Example 100, 4-(3,5-Dichloropyridin-4-ylamino)-7-methoxy-8-(5-(methylamino)pentyloxy)-2H-chromen-2-one]
38 | < 1000 | COC(=O)[C@H](C)NC(=O)CCCCCOc1c(OC)ccc2c(Nc3c(Cl)cncc3Cl)cc(=O)oc12 [Example 95, (S)-Methyl 2-(6-(4-(3,5-dichloropyridin-4-ylamino)-7-methoxy-2-oxo-2H-chromen-8-yloxy)hexanamido)propanoate]
